In publication PMC10748408 (Frontiers in Oncology, 2023):
Marks after values point to notes of the source that are not given here.

Columns and labels:
normal mice = assay: Hematological parameters of normal mice treated with ART; type: in vivo, BALB/c mice
Experimental: Blood was drawn for hematological estimations by thoracotomy and collected in heparinized vials. Blood was diluted using RBC diluting fluid (1: 1000) and WBC diluting fluid (1:100), and RBCs and WBCs were counted using a Neubauer counting chamber. Differential count was performed on blood smear stained with Leishman stain and observed under a microscope at 40X magnification (Dewinter Optical Inc., India). The percentage of lymphocytes, neutrophils, monocytes, eosinophils and basophils were recorded according to their nuclear structure ([27]). Hemoglobin content was estimated using Drabkin’s solution (1g sodium bicarbonate, 0.05g potassium cyanide and 0.2g potassium ferricyanide per liter), which lysed RBCs to convert hemoglobin to cyanmethemoglobin. Finally, the hemoglobin content of the test and the standard samples were obtained in gm/dl by recording the O.D. at 540 nm, and using the formula: O.D of test/O.D of standard x concentration of standard ([28]).

tumor-bearing mice [1] = assay: Hematological parameters of tumor-bearing mice treated with ART; type: in vivo, BALB/c mice; conditions: 7 days
tumor-bearing mice [2] = assay: Mean survival time of tumor-bearing mice; type: in vivo, BALB/c mice; conditions: for MST: tumor-bearing mice, observed 90 days
Experimental: MST was calculated using the equation: MST (days) = (day of first mortality + day of last mortality)/2. The increase in survivability between treated and untreated groups was estimated by ILS% = [(MST of treated set/MST of untreated set) -1] X 100 ([26]).

MDA-MB-231 cells = assay: Cell viability assay (MTT); type: cell-based; conditions: Homo sapiens, 24 hours
Experimental: Human triple negative breast cancer cells MDA-MB-231 and murine mammary cancer cells 4T1 were obtained from National Centre for Cell Sciences, Pune, India. Cells were maintained in complete Dulbecco’s Modified Eagle Medium (DMEM) supplemented with 10% FBS and 1% penicillin/streptomycin, and incubated at 37°C in 5% CO2 - 95% humidified atmosphere. Cells in log phase of growth was used for all subsequent experiments ([21]). 1 x 10^5 viable cells were seeded in a 96-well plate. […] Following treatment, wells were washed to remove the media and 100 µl of PBS was added to each well. Finally, 10 µl of MTT solution (5 mg/mL in PBS) was added and incubated at 37°C for 3 hours. The purple crystals formed were dissolved in 150 µl of DMSO. Absorbance was measured at 570 nm in a multi-plate reader Varioskan™ Lux (Thermo Fisher Scientific, USA; [21]).

CLEC12A = assay: Western blot of CLEC12A in tumor tissues; type: in vivo, BALB/c mice; conditions: ART treatment, dose-dependent
Experimental: (§1) Normal and tumor tissues were homogenized in ice-cold radioimmunoprecipitation assay (RIPA) buffer containing a protease inhibitor cocktail. Proteins were resolved by 10% sodium dodecyl sulphate-polyacrylamide gel electrophoresis (SDS-PAGE), transferred onto polyvinylidene difluoride (PVDF) membranes, blocked with 5% fat-free milk and incubated with primary antibodies (1:1000 dilution) overnight at 4°C. Blots were subsequently washed and incubated with respective secondary antibodies, tagged with horseradish peroxidase. Protein expression was detected using enhanced chemiluminescence (ECL) kit ([37]). Blots were analyzed using the Gel Doc XR and band intensity quantified using ImageJ software (NIH, USA).

beclin1 and LC3α/β = assay: Western blot of autophagic markers in tumor tissues; type: in vivo, BALB/c mice; conditions: ART dose-dependent
Experimental: as §1

tumor cells = assay: Autophagic cells (acridine orange, flow cytometry) in cells isolated from tumors; type: in vivo, BALB/c mice; conditions: tumor-bearing mice, T+6.25 to T+50 mg/kg, vs Tumor
Experimental: Acidic vesicular organelles (AVOs) were examined by microscopy and quantified using flow cytometry of acridine orange (AO) stained cells. Cells were isolated from tissues by collagenase-hyaluronidase digestion and stained with AO (1µg/ml) by incubation at 37°C for 15 minutes in dark. Following subsequent PBS washes, the cells were observed under Olympus laser-scanning confocal microscope (FV-10 ASW 3.0 viewer image browser) at 450 and 593 nm to determine AVOs.

C[C@@H]1CC[C@H]2[C@@H](C)C(=O)O[C@@H]3O[C@@]4(C)CC[C@@H]1[C@]32OO4 [ART, Artemisinin]
Differential Count % B (Basophils) (normal mice; ART 6.25 mg/kg body wt): 0%
Differential Count % E (Eosinophils) (normal mice; ART 6.25 mg/kg body wt): 0%
Differential Count % L (Lymphocytes) (normal mice; ART 6.25 mg/kg body wt): 67± 4.1%
Differential Count % M (Monocytes) (normal mice; ART 6.25 mg/kg body wt): 0%
Differential Count % N (Neutrophils) (normal mice; ART 6.25 mg/kg body wt): 33± 3.1%
Hb (normal mice; ART 6.25 mg/kg body wt): 13.1 ± 0.45 g/dL
Total RBC (normal mice; ART 6.25 mg/kg body wt): 8.1± 0.62 10^6cells/mm^3
Differential Count % B (Basophils) (normal mice; ART 12.5 mg/kg body wt): 0%
Differential Count % E (Eosinophils) (normal mice; ART 12.5 mg/kg body wt): 0%
Differential Count % L (Lymphocytes) (normal mice; ART 12.5 mg/kg body wt): 72± 1.7%
Differential Count % M (Monocytes) (normal mice; ART 12.5 mg/kg body wt): 0%
Differential Count % N (Neutrophils) (normal mice; ART 12.5 mg/kg body wt): 28± 3.5%
Hb (normal mice; ART 12.5 mg/kg body wt): 14.1 ± 0.47 g/dL
Total RBC (normal mice; ART 12.5 mg/kg body wt): 7.8± 0.38 10^6cells/mm^3
Total WBC (normal mice; ART 12.5 mg/kg body wt): 8.3± 1.8 10^3 cells/mm^3
Differential Count % B (Basophils) (normal mice; ART 25 mg/kg body wt): 0%
Differential Count % E (Eosinophils) (normal mice; ART 25 mg/kg body wt): 0%
Differential Count % L (Lymphocytes) (normal mice; ART 25 mg/kg body wt): 74± 3.4%
Differential Count % M (Monocytes) (normal mice; ART 25 mg/kg body wt): 0%
Differential Count % N (Neutrophils) (normal mice; ART 25 mg/kg body wt): 26± 2.3%
Hb (normal mice; ART 25 mg/kg body wt): 14.7 ± 0.39 g/dL
Total RBC (normal mice; ART 25 mg/kg body wt): 8.2± 0.34 10^6cells/mm^3
Total WBC (normal mice; ART 25 mg/kg body wt): 8.75± 2.6 10^3 cells/mm^3
Differential Count % B (Basophils) (normal mice; ART 50 mg/kg body wt): 0%
Differential Count % E (Eosinophils) (normal mice; ART 50 mg/kg body wt): 0%
Differential Count % L (Lymphocytes) (normal mice; ART 50 mg/kg body wt): 70± 2.2%
Differential Count % M (Monocytes) (normal mice; ART 50 mg/kg body wt): 1%
Differential Count % N (Neutrophils) (normal mice; ART 50 mg/kg body wt): 29 ± 3.2%
Hb (normal mice; ART 50 mg/kg body wt): 13.8 ± 0.41 g/dL
Total RBC (normal mice; ART 50 mg/kg body wt): 8.1± 0.41 10^6cells/mm^3
Total WBC (normal mice; ART 50 mg/kg body wt): 8.3± 1.44 10^3 cells/mm^3
Differential Count % B (Basophils) (tumor-bearing mice [1]; ART 6.25 mg/kg body wt i.p.): 0%
Differential Count % E (Eosinophils) (tumor-bearing mice [1]; ART 6.25 mg/kg body wt i.p.): 0%
Differential Count % L (Lymphocyte) (tumor-bearing mice [1]; ART 6.25 mg/kg body wt i.p.): 36± 2.5%
Differential Count % M (Monocytes) (tumor-bearing mice [1]; ART 6.25 mg/kg body wt i.p.): 1%
Differential Count % N (Neutrophils) (tumor-bearing mice [1]; ART 6.25 mg/kg body wt i.p.): 63± 1.4%
Hb (tumor-bearing mice [1]; ART 6.25 mg/kg body wt i.p.): 10.1 ± 0.42 g/dL
Total RBC (tumor-bearing mice [1]; ART 6.25 mg/kg body wt i.p.): 5.1± 0.1 10^6 cells/mm^3
Total WBC (tumor-bearing mice [1]; ART 6.25 mg/kg body wt i.p.): 16.8± 0.8** 10^3 cells/mm^3
Differential Count % B (Basophils) (tumor-bearing mice [1]; ART 12.5 mg/kg body wt i.p.): 0%
Differential Count % E (Eosinophils) (tumor-bearing mice [1]; ART 12.5 mg/kg body wt i.p.): 0%
Differential Count % L (Lymphocyte) (tumor-bearing mice [1]; ART 12.5 mg/kg body wt i.p.): 51± 2.6 %
Differential Count % M (Monocytes) (tumor-bearing mice [1]; ART 12.5 mg/kg body wt i.p.): 1%
Differential Count % N (Neutrophils) (tumor-bearing mice [1]; ART 12.5 mg/kg body wt i.p.): 48± 2.6 %
Hb (tumor-bearing mice [1]; ART 12.5 mg/kg body wt i.p.): 13.7 ± 0.33 g/dL
Total RBC (tumor-bearing mice [1]; ART 12.5 mg/kg body wt i.p.): 6.3± 0.29^* 10^6 cells/mm^3
Total WBC (tumor-bearing mice [1]; ART 12.5 mg/kg body wt i.p.): 10.2± 1.16^*** 10^3 cells/mm^3
Differential Count % B (Basophils) (tumor-bearing mice [1]; ART 25 mg/kg body wt i.p.): 0%
Differential Count % E (Eosinophils) (tumor-bearing mice [1]; ART 25 mg/kg body wt i.p.): 0%
Differential Count % L (Lymphocyte) (tumor-bearing mice [1]; ART 25 mg/kg body wt i.p.): 53± 2.1 %
Differential Count % M (Monocytes) (tumor-bearing mice [1]; ART 25 mg/kg body wt i.p.): 1%
Differential Count % N (Neutrophils) (tumor-bearing mice [1]; ART 25 mg/kg body wt i.p.): 46± 1.3 %
Hb (tumor-bearing mice [1]; ART 25 mg/kg body wt i.p.): 14.2 ± 0.21 g/dL
Total RBC (tumor-bearing mice [1]; ART 25 mg/kg body wt i.p.): 6.7± 0.14^* 10^6 cells/mm^3
Total WBC (tumor-bearing mice [1]; ART 25 mg/kg body wt i.p.): 9.3± 1.8^*** 10^3 cells/mm^3
Differential Count % B (Basophils) (tumor-bearing mice [1]; ART 50 mg/kg body wt i.p.): 0%
Differential Count % E (Eosinophils) (tumor-bearing mice [1]; ART 50 mg/kg body wt i.p.): 0%
Differential Count % L (Lymphocyte) (tumor-bearing mice [1]; ART 50 mg/kg body wt i.p.): 57± 1.2 %
Differential Count % M (Monocytes) (tumor-bearing mice [1]; ART 50 mg/kg body wt i.p.): 2%
Differential Count % N (Neutrophils) (tumor-bearing mice [1]; ART 50 mg/kg body wt i.p.): 41± 1.5 %
Hb (tumor-bearing mice [1]; ART 50 mg/kg body wt i.p.): 14.6 ± 0.61 g/dL
Total RBC (tumor-bearing mice [1]; ART 50 mg/kg body wt i.p.): 7.6± 0.67^* 10^6 cells/mm^3
Total WBC (tumor-bearing mice [1]; ART 50 mg/kg body wt i.p.): 9.1± 1.23^*** 10^3 cells/mm^3
mean survival of tumor-bearing mice treated with ART (tumor-bearing mice [2]; Kaplan-Meier plot, untreated succumbed within 50 days): ~90 days
MST (tumor-bearing mice [2]; ART 6.25 mg/kg body wt): 48.2 ± 17.3 days
MST (tumor-bearing mice [2]; ART 12.5 mg/kg body wt): 61.3 ± 8.9 days
MST (tumor-bearing mice [2]; ART 25 mg/kg body wt): 75.4 ± 7.1 days
MST (tumor-bearing mice [2]; ART 50 mg/kg body wt): 88.3 ± 8.9 days
IC50 (MDA-MB-231 cells): 5 µM
expression of CLEC12A (CLEC12A): reduced
expression of autophagic markers, beclin1 and LC3α/β (beclin1 and LC3α/β): decreased expression
percentage of autophagic cells (tumor cells): dose-dependent decrease
